The subject of series [1] is paramyxovirus (Sendai, SV). Put plainly: Sendai virus (SV) replication in 37RC cells, hemagglutination assay. The series is classed as cell-based. The conditions noted are these: for Virus yield: Table 2, SV; for Reduction of virus production: paramyxovirus, each agent given separately.
In series [2] the test system is Herpes Simplex type 1 virus (HSV-1). Put plainly: HSV-1 replication in HEp-2 cells, CPE50% assay. The series is classed as cell-based, Herpes Simplex virus type 1.
Series [3] concerns influenza A virus (WSN strain). Put plainly: Influenza A virus (WSN) replication in A549 cells, hemagglutination assay. Format: cell-based. Conditions: for Virus yield: Table 2, WSN; for Decrease of virus production: influenza virus, each agent given separately.
The next series deals with rotavirus (SA-11 strain). Put plainly: Rotavirus (SA-11) replication in MA104 cells, hemagglutination assay. Format: cell-based. The conditions noted are these: MA104, 24 h, read-out: IC50 (50% reduction of the virus titer).
The test system of series [4] is coronavirus (CCoV, S-378 strain). Put plainly: Coronavirus (CCoV) replication in A-72 cells, CPE50% assay. The series is classed as cell-based.
Series [5] relates to 37RC cells infected with SV. Put plainly: Cytoprotective effect in SV-infected 37RC cells (FIG. 1). Format: cell-based, monkey. The conditions noted are these: 37RC cells infected with SV for 24 hours, 400 microM INDO. On the procedure:
(§1) FIGS. 1 and 2 show the cytoprotective effect of INDO. Cells were infected as described in example 1.
FIG. 1A: 37RC cells non infected (control); FIG. 1B: 37RC cells infected with SV for 24 hours non treated (SV); FIG. 1C: 37RC cells infected with SV for 24 hours and treated with 400 microM INDO (SV+INDO).

For series [6], the system named is A-72 cells infected with CCoV. Kind of series: Cytoprotective effect in CCoV-infected A-72 cells (FIG. 2). Format: cell-based, canine. Conditions: A-72 cells infected with CCoV for 24 hours, 400 microM INDO. On the procedure:
as §1
FIG. 2A: A-72 cells non infected (control); FIG. 2B: A-72 cells infected with CCoV for 24 hours non treated (CCoV); FIG. 2C: A-72 cells infected with CCoV for 24 hours and treated with 400 microM INDO (CCoV+INDO).

A further series concerns virion. Kind of series: Addition to the virus suspension or during virus adsorption. The series is classed as cell-based. Conditions: INDO 5-10 mM, any of the viruses indicated.
Series [7] deals with transcription factor NF-κB. Put plainly: Activation of NF-κB induced by viral infection. Format: cell-based. The conditions noted are these: at the active antiviral concentrations, data not shown.
Series [8] deals with transcription factor HSF (Heat Shock Factor). Put plainly: Activation of HSF (Heat Shock Factor). Format: cell-based. The conditions noted are these: at the active antiviral concentrations, data not shown.
In a further series the test system is GRP78/BiP. Kind of series: Synthesis of stress protein GRP78/BiP. The series is classed as cell-based.
For another series, the system named is poxvirus. The conditions noted are these: cited from earlier work.
The next series concerns coxsackie virus. The conditions noted are these: cited from earlier work.
Series [9] relates to Vesicular Stomatitis Virus (VSV). Conditions: VSV infection; cited from earlier work.
In the next series the test system is HIV-1. The conditions noted are these: HIV-1 infection; cited from earlier work.
A further series has as its system herpesviruses. The conditions noted are these: some herpesviruses; cited from earlier work.

pIC50: −log10 of the molar value. Several values for one entry are separate records, joined by “and”; a condition that tells them apart may be missing. Equal entries are not always repeated.

Turning to `CCCCC/C=C/C=C1/C(=O)C=C[C@@H]1C/C=C\CCCC(=O)O` [15dx-PGJ2, 15deoxy-Δ^12-14-PGJ2], the Virus yield in series [1] (15dx-PGJ2 alone 1 μM) is 37 % of control. The “Reduction of virus production” value in series [1] is listed as 63%.
In the case of `Nc1nc2c(ncn2COCCO)c(=O)[nH]1` [ACY, acyclovir], in series [2] (Table 2, HSV-1, ACY alone 1 μM), the Virus yield is listed as 7.7 % of control.
The term pIC50 denotes the negative decadic logarithm of the IC50, by convention in mol/L. As a reminder, the inhibition is the relative decrease from the control value, in per cent. Take `COc1ccc2c(c1)c(CC(=O)O)c(C)n2C(=O)c1ccc(Cl)cc1` [INDO, Indomethacin]: the pIC50 was 3.89 in series [1] (Respirovirus muris, 24 h, read-out: IC50 (50% reduction of the virus titer)); 3.40 in series [3] (Influenza A virus, WSN, A549, 24 h, read-out: IC50 (50% reduction of the virus titer)); > 4.60 in the series with rotavirus (SA-11 strain); > 4.30 in series [4] (A-72, 24 h, read-out: IC50 (50% reduction of the virus titer)). Moreover, the Virus yield in series [1] (INDO alone 100 μM) was 50 % of control and 60 % of control; in [3] (INDO alone 200 μM), 75 % of control; in series [3] (INDO alone 400 μM), 67 % of control; in series [2] (Table 2, HSV-1, INDO alone 25 μM), 28.2 % of control and 38.1 % of control; in [2] (Table 2, HSV-1, INDO alone 100 μM), 9.7 % of control. The “Reduction of virus production” value in series [1] is reported as 40%. In addition, the “Effect at 48 hours after infection” value in series [3] is recorded as “lost its effect”. For the same molecule, the “Decrease of virus production” value in series [3] is “approximately 30%”. Also, in series [4] (A-72, coronavirus, INDO 50 microM, read-out: Inhibition of virus production as compared to control), the inhibition at 50 µM was > 90%. Moreover, the “Protective effect on cellular damage (cytopathic effect) caused by virus” value in series [5] and in series [6] was “protected from the destructive cytopathic effect” throughout. The “Effect on virus replication when added to the virus suspension or during virus adsorption” value in the series with virion is reported as “no effect”. For the same molecule, in series [7], the “Inhibition of NF-κB activation induced by the viral infection” value was “does not inhibit”. Besides, in series [8], the “Activation of HSF (Heat Shock Factor)” value is “does not activate”. For the same molecule, the “Synthesis of endoplasmic reticulum stress protein GRP78/BiP” value with GRP78/BiP was “observed the synthesis”. Further, the “Concentrations non-toxic for the host cell” value in the series on host cell was in the range of 10 to 800 µM. The “Antiviral effect (literature)” value is on record as “no antiviral effect or to worsen the infection” in the series with poxvirus; “no antiviral effect or to worsen the infection” in the series on coxsackie virus; “antiviral effect” in series [9]; “antiviral effect” in the series on HIV-1; “antiviral effect” in the series with herpesviruses.
Consider `CCCCC[C@H](O)/C=C/[C@H]1C=CC(=O)[C@@H]1CCCCCCC(=O)O` [PGA1], for which the Virus yield in [2] (Table 2, HSV-1, PGA1 alone 25 μM) is given as 9 % of control.
`NC(=O)c1ncn([C@@H]2O[C@H](CO)[C@@H](O)[C@H]2O)n1` [RIB, ribavirin]: the Virus yield in [3] (RIB alone 50 μM) is recorded as 58 % of control.
`[Cl-].[Cl-].[Zn+2]` [ZnCl2]: the Virus yield in [1] (ZnCl2 alone 50 μM) is recorded as 60 % of control; in series [3] (ZnCl2 alone 50 μM), 67 % of control; in series [2] (Table 2, HSV-1, ZnCl2 alone 50 μM), 8.3 % of control.
In the case of `CCCCC[C@H](O)C/C=C1/C(=O)C=C[C@@H]1C/C=C\CCCC(=O)O` [Δ^12-PGJ2], the Virus yield in [3] (Δ^12-PGJ2 alone 5 μM) is listed as 67 % of control. For the same molecule, the “Decrease of virus production” value in series [3] is given as “approximately 30%”.

Source of the values: patent US20060229356A1, “Use of indomethacin and derivatives as broad-spectrum antiviral drugs and corresponding pharmaceutical compositions” (priority 2003, published 2006).
